ChEMBL document CHEMBL1129670, “Synthesis and structure-activity relationships of N-propyl-N-(4-pyridinyl)-1H-indol-1-amine (besipirdine) and related analogs as potential therapeutic agents for Alzheimer's disease” (J Med Chem, 1996)

Columns and labels:
[1] = target: T1, Adrenergic receptor alpha-1 (Rattus norvegicus, UniProt P15823+P23944+P43140); test: Inhibitory activity against [3H]WB-4101 binding to Alpha-1 adrenergic receptor in rat whole brain membrane; assay type: cell membranes
T1 sequence (P15823 whole entry): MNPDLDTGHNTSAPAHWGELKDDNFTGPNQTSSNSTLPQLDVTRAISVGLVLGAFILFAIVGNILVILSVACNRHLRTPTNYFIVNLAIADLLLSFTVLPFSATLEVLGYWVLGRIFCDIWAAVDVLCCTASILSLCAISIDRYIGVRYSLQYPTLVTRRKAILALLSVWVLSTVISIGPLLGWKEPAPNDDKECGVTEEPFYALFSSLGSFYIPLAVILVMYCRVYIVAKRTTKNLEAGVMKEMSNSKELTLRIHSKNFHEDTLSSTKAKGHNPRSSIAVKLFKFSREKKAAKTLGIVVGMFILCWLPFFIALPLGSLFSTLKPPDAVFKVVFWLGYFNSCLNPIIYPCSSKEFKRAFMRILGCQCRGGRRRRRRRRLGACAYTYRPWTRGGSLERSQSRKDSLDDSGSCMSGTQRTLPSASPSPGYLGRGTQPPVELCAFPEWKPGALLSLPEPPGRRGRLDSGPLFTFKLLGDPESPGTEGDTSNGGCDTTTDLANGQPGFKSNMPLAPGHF
T1 sequence (P23944 whole entry): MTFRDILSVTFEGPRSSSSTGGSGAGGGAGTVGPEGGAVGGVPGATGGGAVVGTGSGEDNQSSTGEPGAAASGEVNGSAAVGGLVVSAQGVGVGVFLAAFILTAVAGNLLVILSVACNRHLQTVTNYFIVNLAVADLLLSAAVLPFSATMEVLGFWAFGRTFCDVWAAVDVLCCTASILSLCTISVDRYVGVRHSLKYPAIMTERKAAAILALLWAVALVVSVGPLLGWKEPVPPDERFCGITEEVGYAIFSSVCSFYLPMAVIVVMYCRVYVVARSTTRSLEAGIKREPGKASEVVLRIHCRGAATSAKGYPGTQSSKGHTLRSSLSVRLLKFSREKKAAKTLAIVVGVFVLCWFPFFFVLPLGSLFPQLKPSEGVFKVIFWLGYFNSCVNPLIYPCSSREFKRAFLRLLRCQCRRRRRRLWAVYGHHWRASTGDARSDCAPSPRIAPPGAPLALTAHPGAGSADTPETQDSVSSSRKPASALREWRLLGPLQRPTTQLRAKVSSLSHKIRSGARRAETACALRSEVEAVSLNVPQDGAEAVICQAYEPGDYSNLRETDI
T1 sequence (P43140 whole entry): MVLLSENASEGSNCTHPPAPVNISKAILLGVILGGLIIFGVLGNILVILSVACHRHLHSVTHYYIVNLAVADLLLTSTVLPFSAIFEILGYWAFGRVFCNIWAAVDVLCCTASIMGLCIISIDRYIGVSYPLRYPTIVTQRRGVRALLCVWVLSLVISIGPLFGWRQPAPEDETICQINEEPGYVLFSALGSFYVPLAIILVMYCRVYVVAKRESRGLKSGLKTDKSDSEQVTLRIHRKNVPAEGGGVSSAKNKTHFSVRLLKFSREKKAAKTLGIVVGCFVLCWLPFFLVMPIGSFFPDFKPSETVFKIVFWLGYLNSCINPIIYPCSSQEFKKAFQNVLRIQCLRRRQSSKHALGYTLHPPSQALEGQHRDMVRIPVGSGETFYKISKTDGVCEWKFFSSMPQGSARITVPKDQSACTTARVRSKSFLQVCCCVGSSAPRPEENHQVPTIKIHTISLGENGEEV

Mus musculus [2] = species on record: Mus musculus; test: Antagonistic activity against Scopolamine induced behavioral deficits in mice; 3/9; assay type: functional
Mus musculus [3] = test: Antagonistic activity against Scopolamine induced behavioral deficits in mice at dose 0.04 mg/kg sc; assay type: functional; settings: route subcutaneous
[4] = target: Muscarinic acetylcholine receptor; assay type: cell membranes, Membrane
Description: Inhibition of [3H]quinuclidinyl benzilate (QNB) binding from rat forebrain membranes in the absence of Zn

[5] = target: Sodium-dependent noradrenaline transporter (Homo sapiens, UniProt P23975)
Chain of Sodium-dependent noradrenaline transporter (P23975 whole entry): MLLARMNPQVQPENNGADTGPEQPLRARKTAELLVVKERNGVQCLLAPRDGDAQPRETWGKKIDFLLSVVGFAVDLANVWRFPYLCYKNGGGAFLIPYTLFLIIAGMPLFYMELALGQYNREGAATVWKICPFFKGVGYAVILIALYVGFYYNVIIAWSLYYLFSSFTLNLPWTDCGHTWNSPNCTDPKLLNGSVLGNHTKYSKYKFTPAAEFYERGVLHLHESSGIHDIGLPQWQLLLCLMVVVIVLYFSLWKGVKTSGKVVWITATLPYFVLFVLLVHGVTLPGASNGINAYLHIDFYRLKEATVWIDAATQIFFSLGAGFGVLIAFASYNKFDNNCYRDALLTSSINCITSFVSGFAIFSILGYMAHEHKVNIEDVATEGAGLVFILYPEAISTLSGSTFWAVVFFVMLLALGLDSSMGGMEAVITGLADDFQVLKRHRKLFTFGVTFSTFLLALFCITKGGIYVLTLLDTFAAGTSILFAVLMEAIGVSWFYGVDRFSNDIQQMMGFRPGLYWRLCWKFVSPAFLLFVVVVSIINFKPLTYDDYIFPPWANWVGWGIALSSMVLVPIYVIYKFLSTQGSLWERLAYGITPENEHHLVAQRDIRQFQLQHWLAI
Description: Inhibitory activity against norepinephrine (NE) uptake in rat whole brain synaptosome preparation

Mus musculus [6] = test: Antagonistic activity against Scopolamine induced behavioral deficits in mice at dose 0.16 mg/kg sc; assay type: functional; settings: route subcutaneous

| Structure (SMILES) | IC50 [1] [µM] | Antagonism (Mus musculus [2]) | Response (Mus musculus [3]) [%] | IC50 [4] [µM] | IC50 [5] [µM] | Response (Mus musculus [6]) [%] |
| --- | --- | --- | --- | --- | --- | --- |
| CN(c1ccncc1)n1ccc2ccccc21 | 1.2 | 3 | 53 | 9 | 1 | – |
| CCCN(c1ccncc1)n1ccc2ccccc21 [BESIPIRDINE] | 10 | – | 30 | 3 | 0.43 | 27 |
| c1ccc2c(c1)ccn2Nc1ccncc1 | 0.51 | 3 | – | 40 | 2.5 | 23 |
